How the values were obtained:
AMPK = AMPK activation effect (AMPK [pT172] ELISA) in MCF7 cells; format: cell-based, human; conditions: 24 hours; for AC150: concentration at which AMPK activation reached 150%; for AMPK activation effect (%) 10 μM / AMPK activation effect (%) 50 μM / AMPK activation effect (%) 5 μM: AMPKα Thr172 phosphorylation relative to untreated cells
Description: ELISA kit (Invitrogen, Catalog No. KH00651).
MCF7 cells were cultured in a DMEM medium supplemented with 10% fatal bovine serum (commercially available from Gibco Life Technologies (US)). Thereafter, the cultured MCF7 cells were put into a 6-well plate with approximately 5×10^5 cells per well, and cultured in an incubator supplied with 5% CO2. Culture media were treated with the derivatives synthesized in the Examples at concentrations of 5, 10 and 50 uM, and then cultured for 24 hours. […] Subsequently, the cells were lysed according to a method presented in the operation manual of the AMPK [pT172] ELISA kit, and 20 μg of a cell lysate was then yielded through protein assay. Thereafter, the AMPK activation effect was obtained by determining a degree of phosphorylation of a 172nd threonine residue (Thr172) of the AMPKα from the cell lysate according to the method presented in the operation manual of the AMPK [pT172] ELISA kit.

HCT116 cells = assay: Effect of inhibiting cancer cell proliferation (MTT) in HCT116 cells; format: cell-based, human; conditions: for inhibition at 100 µM: read-out: Cell growth inhibition (%) at 100 μM; for inhibition at 25 µM: read-out: Cell growth inhibition (%) at 25 μM
Excerpt: HCT116 cells derived from human colorectal cancer were used, and an effect of inhibiting cancer cell proliferation of the biguanide derivative was confirmed by measuring a concentration value (cell growth inhibition concentration, GIC50) at which cell growth was inhibited by 50% using a 3-(4,5-dimethylthiazol-2-yl)-2,5-diphenyltetrazolium bromide (MTT) reagent.
First, HCT116 cells (purchased from the KCLB) were put on a 96-well plate and cultured in a DMEM medium supplemented with 10% fatal bovine serum (commercially available from Gibco Life Technologies (US)) for 16 hours so that approximately 5,000 cells were counted in each well. Subsequently, to obtain the GIC50 value of each compound, the culture media were treated with 100 μM, 25 μM, 6.25 μM, 1.56 μM or 0.39 μM of the compound, and then cultured for 48 hours. In order to determine whether the cells survived after treatment with the compounds, MTT (commercially available from AMRESCO (US)) was added to the culture media which were then cultured for another 3 hours. Formed formazane crystals were dissolved using dimethyl sulfoxide (DMSO) and the absorbance of the resulting solution was measured at 560 nm. After the 48-hour culture, a ratio of a living cell count on a well plate treated with the compounds synthesized in the Examples to a cell count cultured on a well plate not treated with the compound was indicated as cell viability (%) according to the concentration of each treated compound. The cell viability (%) was used to plot a cell viability curve graph and calculate a concentration (GIC50) value of the compound at which the growth was inhibited by 50%, thereby confirming the inhibition effect of cancer cell proliferation.

[1] = Homo sapiens, HCT-116, 48 h, 25 μM

Row | Compound | GI50 (HCT116 cells; Homo sapiens, HCT-116, 48 h) [µM] | GI50 (HCT116 cells; 48 hours, hydrochloride) [µM] | AC150 (AMPK) [µM] | inhibition at 100 µM (HCT116 cells; Homo sapiens, HCT-116, 48 h) [%] | AMPK activation effect (%) 10 μM (AMPK) [%] | AMPK activation effect (%) 50 μM (AMPK) [%] | AMPK activation effect (%) 5 μM (AMPK) [%] | inhibition at 25 µM (HCT116 cells; [1]) [%] | AMPK activation effect (%) 5 μM (AMPK; hydrochloride) [%] | AMPK activation effect (%) 10 μM (AMPK; hydrochloride) [%] | AC150 (AMPK; hydrochloride) [µM] | Cell growth inhibition (%) at 25 μM (HCT116 cells; 25 μM, 48 hours, hydrochloride) [%]
1 | CCCCNC(=N)NC(=N)N1CC=CCC1.Cl [Example 59, N1-1,2,3,6-tetrahydropyridine-N5-butyl biguanide hydrochloride] | 141 | – | 16.6 | 44.5 | 104 | 283 | – | – | – | – | – | –
2 | COc1ccc(NC(=N)NC(=N)N2CC=CCC2)cc1.Cl [Example 40, N1-1,2,3,6-tetrahydropyridine-N5-(4-methoxyl)phenyl biguanide hydrochloride] | > 100 | – | 37.8 | 37.4 | 122 | 163 | – | – | – | – | – | –
3 | CC1CCCC(C)N1C(=N)NC(=N)Nc1ccc(F)cc1.Cl (centres unmarked) [Example 98, N1-(2,6-dimethyl)piperidine-N5-(4-fluoro)phenyl biguanide hydrochloride] | 45.4 | – | 2.8 | – | 244 | – | 239 | 28.2 | – | – | – | –
4 | COc1cc(NC(=N)NC(=N)N2CC=CCC2)cc(OC)c1.Cl [Example 38, N1-1,2,3,6-tetrahydropyridine-N5-(3,5-dimethoxy)phenyl biguanide hydrochloride] | 108 | – | >50 | 47.8 | 97 | 117 | – | – | – | – | – | –
5 | CC1CCCN(C(=N)NC(=N)Nc2ccc(F)c(C(F)(F)F)c2)C1.Cl (centres unmarked) [Example 85, N1-(3-methyl)piperidine-N5-(4-fluoro, 3-trifluoromethyl)phenyl biguanide hydrochloride] | – | 7.1 | – | – | – | – | – | – | 345 | 436 | 0.7 | 100.2
6 | CC1CCCN(C(=N)NC(=N)Nc2ccc(Br)cc2)C1.Cl (centres unmarked) [Example 68, N1-(3-methyl)piperidine-N5-(4-bromo)phenyl biguanide hydrochloride] | 45.3 | – | 13.7 | – | 136 | – | 52 | 29.4 | – | – | – | –
7 | Cl.N=C(NC(=N)N1CC=CCC1)Nc1ccccc1 [Example 39, N1-1,2,3,6-tetrahydropyridine-N5-phenyl biguanide hydrochloride] | 124 | – | 67.2 | 39.8 | 96 | 138 | – | – | – | – | – | –
8 | Cl.N=C(NC(=N)N1CC=CC1)Nc1ccc(Cl)cc1 [Example 8, N1-1,2-dihydropyrrole-N5-(4-chloro)phenyl biguanide hydrochloride] | 42.8 | – | 8.3 | 99.1 | 139 | 515 | – | – | – | – | – | –
9 | CCCCCCNC(=N)NC(=N)N1CC=CCC1.Cl [Example 53, N1-1,2,3,6-tetrahydropyridine-N5-hexyl biguanide hydrochloride] | 43.7 | – | 2.3 | 97.9 | 311 | 589 | – | – | – | – | – | –
10 | Cl.N=C(NC(=N)N1CC=CCC1)Nc1ccc(F)cc1 [Example 37, N1-1,2,3,6-tetrahydropyridine-N5-(4-fluoro)phenyl biguanide hydrochloride] | 135 | – | 4.2 | 45.3 | 187 | 522 | – | – | – | – | – | –

Further molecules by falling GI50 (HCT116 cells; Homo sapiens, HCT-116, 48 h), results first:

Row | GI50 (HCT116 cells; Homo sapiens, HCT-116, 48 h) [µM] | GI50 (HCT116 cells; 48 hours, hydrochloride) [µM] | Compound | AC150 (AMPK) [µM] | inhibition at 100 µM (HCT116 cells; Homo sapiens, HCT-116, 48 h) [%] | AMPK activation effect (%) 10 μM (AMPK) [%] | AMPK activation effect (%) 50 μM (AMPK) [%] | AMPK activation effect (%) 5 μM (AMPK) [%] | inhibition at 25 µM (HCT116 cells; [1]) [%] | AMPK activation effect (%) 5 μM (AMPK; hydrochloride) [%] | AMPK activation effect (%) 10 μM (AMPK; hydrochloride) [%] | AC150 (AMPK; hydrochloride) [µM] | Cell growth inhibition (%) at 25 μM (HCT116 cells; 25 μM, 48 hours, hydrochloride) [%]
11 | 28.8 | – | Cl.N=C(NC(=N)N1CC=CC1)Nc1ccc(Br)cc1 [Example 9, N1-1,2-dihydropyrrole-N5-(4-bromo)phenyl biguanide hydrochloride] | 9.0 | 99.5 | 169 | 371 | – | – | – | – | – | –
12 | 26.9 | – | Cl.N=C(NCc1ccc(C(F)(F)F)cc1)NC(=N)N1CC=CCC1 [Example 56, N1-1,2,3,6-tetrahydropyridine-N5-(4-trifluoromethyl)benzyl biguanide hydrochloride] | 2.1 | 97.7 | 389 | 671 | – | – | – | – | – | –
13 | 12 | – | Cl.N=C(NC(=N)N1CC=CC1)Nc1ccc(F)c(C(F)(F)F)c1 [Example 46, N1-1,2-dihydropyrrole-N5-(4-fluoro, 3-trifluoromethyl)phenyl biguanide hydrochloride] | 1.6 | 100 | 448 | – | – | – | – | – | – | –
14 | 11.4 | – | CC1CCCC(C)N1C(=N)NC(=N)Nc1ccc(C(F)(F)F)cc1.Cl (centres unmarked) [Example 91, N1-(2,6-dimethyl)piperidine-N5-(4-trifluoromethyl)phenyl biguanide hydrochloride] | 5.6 | – | 214 | – | 108 | 100 | – | – | – | –
15 | 10.4 | – | CC1=CCN(C(=N)NC(=N)Nc2ccc(Br)cc2)C1.Cl [Example 21, N1-(3-methyl)-1,2-dihydropyrrole-N5-(4-bromo)phenyl biguanide hydrochloride] | 11.9 | 99.4 | 156 | – | – | – | – | – | – | –
16 | 9.5 | – | Cl.N=C(NC(=N)N1CC=CCC1)Nc1ccc(C(F)(F)F)cc1 [Example 29, N1-1,2,3,6-tetrahydropyridine-N5-(4-trifluoromethyl)phenyl biguanide hydrochloride] | 1.3 | 100 | 551 | – | – | – | – | – | – | –
17 | 8.7 | – | CC1CCCCN1C(=N)NC(=N)Nc1ccc(C(F)(F)F)cc1.Cl (centres unmarked) [Example 74, N1-(2-methyl)piperidine-N5-(4-trifluoromethyl)phenyl biguanide hydrochloride] | 2.0 | – | 410 | – | 199 | 100 | – | – | – | –
18 | 7.9 | – | Cl.N=C(NC(=N)N1CC=CCC1)Nc1ccc(F)c(C(F)(F)F)c1 [Example 32, N1-1,2,3,6-tetrahydropyridine-N5-(4-fluoro, 3-trifluoromethyl)phenyl biguanide hydrochloride] | 0.62 | 99.4 | 837 | – | – | – | – | – | – | –
19 | 7 | – | CC1CCCN(C(=N)NC(=N)Nc2ccc(OC(F)(F)F)cc2)C1.Cl (centres unmarked) [Example 82, N1-(3-methyl)piperidine-N5-(4-trifluoromethoxy)phenyl biguanide hydrochloride] | 0.5 | – | 474 | – | 401 | 100 | – | – | – | –
20 | 6.7 | – | CC1CCCCN1C(=N)NC(=N)Nc1cccc(OC(F)(F)F)c1.Cl (centres unmarked) [Example 73, N1-(2-methyl)piperidine-N5-(3-trifluoromethoxy)phenyl biguanide hydrochloride] | 2.0 | – | 384 | – | 215 | 100 | – | – | – | –
21 | 5.7 | – | CC1CCCN(C(=N)NC(=N)Nc2ccc(F)c(C(F)(F)F)c2)C1.Cl (centres unmarked) [Example 71, N1-(3-methyl)piperidine-N5-(4-fluoro, 3-trifluoromethyl)phenyl biguanide hydrochloride] | – | – | – | – | – | 100 | 259 | 430 | 1.6 | –
22 | 2.6 | – | CC1=CCN(C(=N)NC(=N)Nc2ccc(Cl)c(C(F)(F)F)c2)C1.Cl [Example 18, N1-(3-methyl)-1,2-dihydropyrrole-N5-(4-chloro, 3-trifluoromethyl)phenyl biguanide hydrochloride] | 0.81 | 99.5 | – | – | – | – | – | – | – | –

— patent publication US9884821B2, “N1-cyclic amine-N5-substituted biguanide derivatives, methods of preparing the same and pharmaceutical composition comprising the same” (IMMUNOMET THERAPEUTICS INC., priority 2013, dated 2018)
